Test results published in patent US8742114B2, “Nucleic acid detections and methods of their use” (priority 2011, dated 2014).

Tests used:
[1] = test system: dsDNA, ssDNA, and RNA; assay: Selectivity test on dsDNA, ssDNA, and RNA in TE buffer; settings: 2 μM dye, 10 μg/mL nucleic acid, 1×TE buffer, ex 480 nm (36, 40) or 620 nm (49), FIG. 2
Description: Compound 36, compound 40, and compound 49 were prepared in 2 μM concentration in 1×TE buffer, individually. Salmon sperm dsDNA, calf thymus ssDNA, and E. coli rRNA were prepared in 10 μg/mL concentration in 1×TE buffer, individually. Equal amount of each solution of dsDNA, ssDNA, and RNA was added to the solutions of compound 36, compound 40 and compound 49, individually. The emission spectrum associated with each of the solutions was scanned at excitation wavelength 480 nm for compound 36 and 40, and at excitation wavelength 620 nm for compound 49.

[2] = test system: live and fixed HeLa cells; assay: Cellular nucleic acid staining; type: cell-based; settings: 1 μM in PBS buffer, 10 min, fluorescence microscopy, FIG. 5
Description: Compound 38, compound 42, and compound 61 were prepared in 1 mM stock solution in water, respectively. Each compound at 1 μM concentration in PBS buffer was incubated with live and fixed HeLa cells in 96-well plate for 10 min, respectively. The fluorescence imaging of cells was taken on a fluorescence microscopy with a 488 nm excitation laser and a 520±15 nm emission filter, as shown in FIG. 5.

[3] = test system: DNA or RNA; assay: Binding selectivity on DNA or RNA (effect of R3); settings: R3 methyl 4-benzoate versus R3 H
[4] = test system: nucleic acids; settings: background; cited from earlier work
[5] = background; cited from earlier work

SMILES: COCCOCCOCCOCCN1C(N(CCC[N+](C)(C)C)CCC[N+](C)(C)C)=C/C(=C/c2sc3ccccc3[n+]2C)c2ccccc21 [Compound 40]
- selectivity among dsDNA, ssDNA and RNA (fluorescence emission spectra) [1]: good selectivity for DNA versus RNA

SMILES: CC[N+](C)(CC)Cc1ccc(C2=C/C(=C/c3sc4ccccc4[n+]3C)c3ccccc3N2CCOCCOCCOCCOC)cc1 [Compound 42]
- live cell permeability [2]: live cell impermeant

SMILES: CN(C)CCCN(CCCN(C)C)C1=C/C(=C\C=C\c2sc3ccc(S(=O)(=O)[O-])cc3[n+]2C)c2ccccc2N1C [Compound 53]
- binding selectivity on DNA or RNA [3]: high selectivity for DNA over RNA

SMILES: CN(C)CCCN(CCCN(C)C)C1=C/C(=C\c2sc3ccccc3[n+]2C)c2ccccc2N1CCCCCC(=O)NCCOCCO.[I-] [Compound 61]
- live cell permeability [2]: live cell impermeant

SMILES: CCCN1C=C/C(=C\c2sc3ccccc3[n+]2C)c2ccccc21 [SYBR Safe]
- detection sensitivity on nucleic acids [4]: low sensitive than desired

SMILES: CN1C(=Cc2cc[n+](C)c3ccccc23)Sc2ccccc21 [Thiazole Orange]
- detection sensitivity on nucleic acids [4]: low detection sensitivity

SMILES: CC[n+]1c(-c2ccccc2)c2cc(N)ccc2c2ccc(N)cc21 [ethidium bromide, Ethidium bromide]
- mutagenicity [5]: mutagenic
